Reference: ChEMBL document CHEMBL5465560, “Selectivity Literature for EUbOPEN Chemogenomic Library” (2024)

Key:
[1] = molecular target: T1, Serine/threonine-protein kinase 3 (Homo sapiens) (UniProt Q13188); test: Selectivity interaction (KinomeScan (DiscoverX)) EUB0000595a STK3; conditions: at 10 µM
T1 sequence (whole entry): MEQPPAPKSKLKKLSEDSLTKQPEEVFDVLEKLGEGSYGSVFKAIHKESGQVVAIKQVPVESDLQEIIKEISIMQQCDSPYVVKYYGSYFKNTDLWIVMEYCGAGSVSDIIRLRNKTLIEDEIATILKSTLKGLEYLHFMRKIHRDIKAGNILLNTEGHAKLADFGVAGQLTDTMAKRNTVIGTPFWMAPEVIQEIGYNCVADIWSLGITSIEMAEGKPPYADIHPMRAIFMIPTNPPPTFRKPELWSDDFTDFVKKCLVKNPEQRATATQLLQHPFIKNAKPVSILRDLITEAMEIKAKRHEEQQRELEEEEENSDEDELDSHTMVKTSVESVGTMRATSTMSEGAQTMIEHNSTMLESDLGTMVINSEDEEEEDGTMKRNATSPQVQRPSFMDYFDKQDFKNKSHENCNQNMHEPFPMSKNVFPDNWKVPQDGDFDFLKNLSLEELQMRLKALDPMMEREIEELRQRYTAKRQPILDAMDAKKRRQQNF

[2] = molecular target: Calcium/calmodulin-dependent protein kinase type II subunit alpha (Homo sapiens, UniProt Q9UQM7); test: Selectivity interaction (KinomeScan (DiscoverX)) EUB0000595a CAMK2A; conditions: at 10 µM
Sequence of Calcium/calmodulin-dependent protein kinase type II subunit alpha (Q9UQM7 whole entry): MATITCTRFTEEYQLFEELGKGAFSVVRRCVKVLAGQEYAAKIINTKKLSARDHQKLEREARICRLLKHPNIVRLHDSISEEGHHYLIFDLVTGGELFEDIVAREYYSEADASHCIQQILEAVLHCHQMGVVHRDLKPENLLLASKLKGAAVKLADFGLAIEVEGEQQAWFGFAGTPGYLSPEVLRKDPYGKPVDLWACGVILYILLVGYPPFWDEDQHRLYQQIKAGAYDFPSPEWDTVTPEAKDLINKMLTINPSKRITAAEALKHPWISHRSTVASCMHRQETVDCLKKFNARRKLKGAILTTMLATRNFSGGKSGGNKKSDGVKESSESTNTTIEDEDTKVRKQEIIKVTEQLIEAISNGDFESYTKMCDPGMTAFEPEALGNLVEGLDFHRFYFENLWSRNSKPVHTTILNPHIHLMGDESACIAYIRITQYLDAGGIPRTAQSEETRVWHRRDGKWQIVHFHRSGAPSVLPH

[3] = molecular target: RAF proto-oncogene serine/threonine-protein kinase (Homo sapiens) (UniProt P04049); test: Selectivity interaction (KinomeScan (DiscoverX)) EUB0000695a RAF1; conditions: at 100 nM
Sequence of RAF proto-oncogene serine/threonine-protein kinase (Homo sapiens) (P04049 whole entry): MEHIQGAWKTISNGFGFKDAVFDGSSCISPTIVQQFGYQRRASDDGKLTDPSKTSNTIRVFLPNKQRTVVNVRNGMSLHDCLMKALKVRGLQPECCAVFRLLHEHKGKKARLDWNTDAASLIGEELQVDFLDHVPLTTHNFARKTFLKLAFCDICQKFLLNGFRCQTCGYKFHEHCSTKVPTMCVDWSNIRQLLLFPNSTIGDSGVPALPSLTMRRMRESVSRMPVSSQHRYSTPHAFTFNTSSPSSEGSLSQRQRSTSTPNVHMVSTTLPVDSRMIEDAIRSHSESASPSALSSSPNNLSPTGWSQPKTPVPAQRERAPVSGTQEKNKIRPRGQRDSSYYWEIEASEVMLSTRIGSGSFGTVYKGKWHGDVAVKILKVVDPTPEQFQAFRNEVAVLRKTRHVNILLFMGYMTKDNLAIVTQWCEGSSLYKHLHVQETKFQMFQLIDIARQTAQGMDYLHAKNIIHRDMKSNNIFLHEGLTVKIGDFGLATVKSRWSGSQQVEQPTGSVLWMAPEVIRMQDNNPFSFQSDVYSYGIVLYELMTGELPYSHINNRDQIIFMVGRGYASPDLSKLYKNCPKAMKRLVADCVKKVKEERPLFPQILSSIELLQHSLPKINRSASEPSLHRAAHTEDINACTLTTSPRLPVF

[4] = molecular target: T2, Cyclin-dependent kinase 11A (Homo sapiens) (UniProt Q9UQ88); test: Selectivity interaction (KinomeScan (DiscoverX)) EUB0001079a CDK11A; conditions: at 1 µM
T2 sequence (whole entry): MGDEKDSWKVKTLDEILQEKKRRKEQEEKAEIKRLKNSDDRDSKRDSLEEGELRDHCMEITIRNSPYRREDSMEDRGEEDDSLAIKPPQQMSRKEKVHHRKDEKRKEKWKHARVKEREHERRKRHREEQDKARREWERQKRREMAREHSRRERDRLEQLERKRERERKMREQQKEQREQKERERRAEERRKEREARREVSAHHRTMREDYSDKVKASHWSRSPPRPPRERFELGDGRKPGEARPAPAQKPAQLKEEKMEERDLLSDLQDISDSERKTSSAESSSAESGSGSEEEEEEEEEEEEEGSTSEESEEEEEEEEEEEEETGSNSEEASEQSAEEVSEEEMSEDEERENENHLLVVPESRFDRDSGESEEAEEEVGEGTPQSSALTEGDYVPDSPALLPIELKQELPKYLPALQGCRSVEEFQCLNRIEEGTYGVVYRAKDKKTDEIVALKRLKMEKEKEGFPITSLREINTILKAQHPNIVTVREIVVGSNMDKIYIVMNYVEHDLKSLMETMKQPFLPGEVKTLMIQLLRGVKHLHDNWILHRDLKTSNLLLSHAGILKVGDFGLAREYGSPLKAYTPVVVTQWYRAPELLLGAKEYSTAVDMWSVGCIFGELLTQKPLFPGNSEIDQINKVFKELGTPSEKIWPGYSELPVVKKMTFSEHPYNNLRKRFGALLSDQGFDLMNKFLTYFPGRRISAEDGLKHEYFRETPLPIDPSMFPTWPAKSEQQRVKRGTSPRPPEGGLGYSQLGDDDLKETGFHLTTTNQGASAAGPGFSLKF

[5] = molecular target: Mitogen-activated protein kinase 3 (Homo sapiens, UniProt P27361); test: Selectivity interaction (KinomeScan (DiscoverX)) EUB0000666a MAPK3; conditions: at 10 µM
Sequence of Mitogen-activated protein kinase 3 (P27361 whole entry): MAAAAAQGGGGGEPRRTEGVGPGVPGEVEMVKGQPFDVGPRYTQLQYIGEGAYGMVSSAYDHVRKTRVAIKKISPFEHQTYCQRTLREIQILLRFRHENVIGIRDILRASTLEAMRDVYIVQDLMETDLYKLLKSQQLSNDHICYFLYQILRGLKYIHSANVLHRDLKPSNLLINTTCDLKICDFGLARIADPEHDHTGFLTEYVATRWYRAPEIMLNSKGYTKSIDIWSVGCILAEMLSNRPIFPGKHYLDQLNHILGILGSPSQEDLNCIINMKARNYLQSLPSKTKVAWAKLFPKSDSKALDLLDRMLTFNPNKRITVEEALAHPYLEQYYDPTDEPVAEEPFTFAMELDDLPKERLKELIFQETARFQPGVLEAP

[6] = molecular target: Cyclin-dependent kinase 2/cyclin E (Homo sapiens, UniProt P24941); test: Selectivity interaction (Enzyme panel (AstraZeneca, AlphaScreen, functional assay)) EUB0000621a CDK2; type: protein-complex assay
[7] = molecular target: T3, Phosphatidylinositol 5-phosphate 4-kinase type-2 alpha (Homo sapiens) (UniProt P48426); test: Selectivity interaction (ActivX KiNativ screen (ex vivo kinase selectivity in human PBMCs)) EUB0001619a PIP4K2A; type: cell-based; conditions: PBMC, at 1 µM
T3 sequence (whole entry): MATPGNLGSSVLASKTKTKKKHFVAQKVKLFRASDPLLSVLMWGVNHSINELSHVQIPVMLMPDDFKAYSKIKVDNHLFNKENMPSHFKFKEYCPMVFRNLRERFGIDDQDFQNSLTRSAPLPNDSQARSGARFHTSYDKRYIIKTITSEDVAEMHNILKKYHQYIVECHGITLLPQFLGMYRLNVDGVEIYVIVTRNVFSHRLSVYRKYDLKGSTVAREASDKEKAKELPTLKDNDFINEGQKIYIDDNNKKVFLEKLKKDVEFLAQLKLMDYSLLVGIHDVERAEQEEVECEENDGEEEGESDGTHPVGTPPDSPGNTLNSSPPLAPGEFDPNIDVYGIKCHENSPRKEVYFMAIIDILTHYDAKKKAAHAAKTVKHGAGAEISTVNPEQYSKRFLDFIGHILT

[8] = molecular target: BMP-2-inducible protein kinase (Homo sapiens) (UniProt Q9NSY1); test: Selectivity interaction (KinomeScan (DiscoverX)) EUB0000092b BMP2K; conditions: at 10 µM
Sequence of BMP-2-inducible protein kinase (Homo sapiens) (Q9NSY1 whole entry, looked up): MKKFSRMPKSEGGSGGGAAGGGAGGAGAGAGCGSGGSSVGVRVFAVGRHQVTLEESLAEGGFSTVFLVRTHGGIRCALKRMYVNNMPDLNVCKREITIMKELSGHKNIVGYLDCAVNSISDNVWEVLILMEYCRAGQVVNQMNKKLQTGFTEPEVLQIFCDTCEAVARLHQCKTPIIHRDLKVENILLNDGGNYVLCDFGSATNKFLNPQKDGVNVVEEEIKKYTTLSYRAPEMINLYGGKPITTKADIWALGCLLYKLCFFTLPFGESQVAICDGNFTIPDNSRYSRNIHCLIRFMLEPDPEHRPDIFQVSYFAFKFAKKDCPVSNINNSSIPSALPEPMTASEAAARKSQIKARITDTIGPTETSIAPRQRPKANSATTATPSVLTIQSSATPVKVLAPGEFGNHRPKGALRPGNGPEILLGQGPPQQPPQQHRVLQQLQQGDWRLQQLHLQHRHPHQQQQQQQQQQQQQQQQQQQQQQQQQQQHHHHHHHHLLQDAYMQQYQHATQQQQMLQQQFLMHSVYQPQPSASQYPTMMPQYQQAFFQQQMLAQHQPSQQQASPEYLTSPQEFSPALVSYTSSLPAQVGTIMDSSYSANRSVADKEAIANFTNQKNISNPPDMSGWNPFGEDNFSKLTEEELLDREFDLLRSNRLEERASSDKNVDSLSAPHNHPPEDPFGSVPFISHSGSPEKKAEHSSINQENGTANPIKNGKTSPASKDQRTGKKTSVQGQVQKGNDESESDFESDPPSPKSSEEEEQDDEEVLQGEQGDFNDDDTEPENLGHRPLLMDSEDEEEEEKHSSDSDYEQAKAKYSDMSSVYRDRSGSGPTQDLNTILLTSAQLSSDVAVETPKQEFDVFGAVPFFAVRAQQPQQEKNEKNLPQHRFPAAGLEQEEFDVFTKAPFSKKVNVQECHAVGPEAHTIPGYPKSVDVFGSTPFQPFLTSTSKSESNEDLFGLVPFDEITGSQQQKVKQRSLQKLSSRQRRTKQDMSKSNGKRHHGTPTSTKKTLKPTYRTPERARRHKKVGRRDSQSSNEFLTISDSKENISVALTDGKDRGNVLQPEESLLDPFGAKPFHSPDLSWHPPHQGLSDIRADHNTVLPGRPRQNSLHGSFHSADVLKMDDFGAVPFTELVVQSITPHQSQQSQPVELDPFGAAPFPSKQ

COCC(=O)NC/C=C/c1ccc2ncnc(Nc3ccc(Oc4ccc(C)nc4)c(C)c3)c2c1 [CP-724714]
% of control [1]: 82% | % of control [2]: 93%

Cc1cc(F)c(C(=O)Nc2cccc(-c3nncn3C(C)C)n2)cc1-n1cnc(C2CC2)c1
% of control [3]: 79%

Nc1cnc(N2CCc3cc(S(=O)(=O)Nc4c(F)cc(Cl)cc4F)cc(N4CCCC4=O)c32)nc1 [TP-020n]
% of control [4]: 89%

O=C(NOC[C@H](O)CO)c1ccc(F)c(F)c1Nc1ccc(I)cc1F
% of control [5]: 86%

Cc1cc([C@@H](C)Nc2ccccc2C(=O)O)c2nc(N3CCOCC3)cc(=O)n2c1 [AZD-6482]
IC50 [6]: > 1000 µM

N#Cc1cccc(-c2c[nH]c3ncnc(N4CCOCC4)c23)c1
% of inhibition [7]: 16%

CCC(=O)N1CCN(c2ccc(-n3c(=O)ccc4cnc5ccc(-c6cnc7ccccc7c6)cc5c43)cc2C(F)(F)F)CC1
% of control [8]: 100%
